Data: ChEMBL document CHEMBL1201862, “PubChem BioAssay data set” (2004)
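Five compound concentrations were applied to cells in 96-well plates for 48 hours; endpoints were derived by simple linear interpolation of the resulting dose-response curve. The concentration for 50% growth inhibition is given as GI50.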 Activity calls are given as the source filed them. Rule as the data show it: active = GI50 up to about 1.1 µM and inactive = higher.

What was measured:
Assay in all cases: NCI anticancer screen, dose series, 48 h
RXF 393 = system: RXF 393
COLO 205 = system: COLO 205
LXFL 529 = system: LXFL 529
MOLT-4 = system: MOLT-4
DLD-1 = system: DLD-1
IGROV-1 = system: IGROV-1
ACHN = system: ACHN
U-251 = system: U-251
M19-MEL = system: M19-MEL
UACC-257 = system: UACC-257
OVCAR-4 = system: OVCAR-4
CAKI-1 = system: CAKI-1
SR = system: SR
HOP-18 = system: HOP-18
M14 = system: M14
DMS-273 = system: DMS-273
KM-20L2 = system: KM-20L2
SN12C = system: SN12C
TK-10 = system: TK-10
OVCAR-5 = system: OVCAR-5
HCT-15 = system: HCT-15
HT-29 = system: HT-29
HOP-92 = system: HOP-92
HCT-116 = system: HCT-116
NCI-H23 = system: NCI-H23
SF-295 = system: SF-295
HCC 2998 = system: HCC 2998
HL-60 = system: HL-60
HOP-62 = system: HOP-62
RPMI-8226 = system: RPMI-8226
CCRF-CEM = system: CCRF-CEM
SNB-19 = system: SNB-19
KM12 = system: KM12
NCI-H226 = system: NCI-H226
DMS-114 = system: DMS-114
Malme-3M = system: Malme-3M
LOX IMVI = system: LOX IMVI
NCI-H522 = system: NCI-H522
UO-31 = system: UO-31
K562 = system: K562
UACC-62 = system: UACC-62
SK-OV-3 = system: SK-OV-3
SK-MEL-28 = system: SK-MEL-28
A498 = system: A498
A549 = system: A549
SNB-78 = system: SNB-78
SNB-75 = system: SNB-75
OVCAR-8 = system: OVCAR-8
SW-620 = system: SW-620
NCI-H460 = system: NCI-H460
786-0 = system: 786-0
OVCAR-3 = system: OVCAR-3
RXF 631 = system: RXF 631
SF-268 = system: SF-268
EKVX = system: EKVX
SK-MEL-5 = system: SK-MEL-5
SK-MEL-2 = system: SK-MEL-2
SF-539 = system: SF-539

With `Cc1cc(Cc2cc(C)c(NC(=O)C(=O)C3C(=O)NC(=S)NC3=O)c(C(C)C)c2)cc(C(C)C)c1NC(=O)C(=O)C1C(=O)NC(=S)NC1=O` the GI50 (RXF 393) was > 100 µM (inactive), the GI50 (COLO 205) was > 100 µM (inactive) and the GI50 (LXFL 529) was > 100 µM (inactive). The GI50 (MOLT-4) was > 100 µM (inactive), the GI50 (DLD-1) was > 100 µM (inactive) and the GI50 (IGROV-1) was > 100 µM (inactive). For the same compound, the GI50 (ACHN) was > 100 µM (inactive), the GI50 (U-251) was > 100 µM (inactive) and the GI50 (M19-MEL) was > 100 µM (inactive). The GI50 (UACC-257) was > 100 µM (inactive), the GI50 (OVCAR-4) was > 100 µM (inactive) and the GI50 (CAKI-1) was > 100 µM (inactive). The GI50 (SR) was > 100 µM (inactive), the GI50 (HOP-18) was > 100 µM (inactive) and the GI50 (M14) was > 100 µM (inactive). For the same compound, the GI50 (DMS-273) was > 100 µM (inactive), the GI50 (KM-20L2) was > 100 µM (inactive) and the GI50 (SN12C) was > 100 µM (inactive). For the same compound, the GI50 (TK-10) was > 100 µM (inactive), the GI50 (OVCAR-5) was > 100 µM (inactive) and the GI50 (HCT-15) was greater than 100 µM. For the same compound, the GI50 (HT-29) was > 100 µM (inactive), the GI50 (HOP-92) was > 100 µM (inactive) and the GI50 (HCT-116) was > 100 µM (inactive). For the same compound, the GI50 (NCI-H23) was > 100 µM (inactive), the GI50 (SF-295) was > 100 µM (inactive) and the GI50 (HCC 2998) was > 100 µM (inactive). The GI50 (HL-60) was > 100 µM (inactive), the GI50 (HOP-62) was > 100 µM (inactive) and the GI50 (RPMI-8226) was > 100 µM (inactive). The GI50 (CCRF-CEM) was > 100 µM (inactive), the GI50 (SNB-19) was > 100 µM (inactive) and the GI50 (KM12) was > 100 µM (inactive). For the same compound, the GI50 (NCI-H226) was > 100 µM (inactive), the GI50 (DMS-114) was > 100 µM (inactive) and the GI50 (Malme-3M) was > 100 µM (inactive). For the same compound, the GI50 (LOX IMVI) was > 100 µM (inactive), the GI50 (NCI-H522) was > 100 µM (inactive) and the GI50 (UO-31) was > 100 µM (inactive). For the same compound, the GI50 (K562) was > 100 µM (inactive), the GI50 (UACC-62) was > 100 µM (inactive) and the GI50 (SK-OV-3) was > 100 µM (inactive). For the same compound, the GI50 (SK-MEL-28) was > 100 µM (inactive), the GI50 (A498) was > 100 µM (inactive) and the GI50 (A549) was > 100 µM (inactive). The GI50 (SNB-78) was > 100 µM (inactive), the GI50 (SNB-75) was > 100 µM (inactive) and the GI50 (OVCAR-8) was > 100 µM (inactive). For the same compound, the GI50 (SW-620) was > 100 µM (inactive), the GI50 (NCI-H460) was > 100 µM (inactive) and the GI50 (786-0) was > 100 µM (inactive). For the same compound, the GI50 (OVCAR-3) was > 100 µM (inactive), the GI50 (RXF 631) was > 100 µM (inactive) and the GI50 (SF-268) was > 100 µM (inactive). For the same compound, the GI50 (EKVX) was > 100 µM (inactive).
In the case of `Cc1cccc(-n2c(=S)[nH]c3c(sc(=O)n3-c3ccccc3C)c2=O)c1`, the GI50 (RXF 393) is reported as > 100 µM (inactive), the GI50 (COLO 205) is reported as > 100 µM (inactive) and the GI50 (LXFL 529) is reported as > 100 µM (inactive). For the same compound, the GI50 (MOLT-4) was > 100 µM (inactive), the GI50 (DLD-1) was > 100 µM (inactive) and the GI50 (IGROV-1) was > 100 µM (inactive). The GI50 (ACHN) was > 100 µM (inactive), the GI50 (U-251) was > 100 µM (inactive) and the GI50 (M19-MEL) was > 100 µM (inactive). For the same compound, the GI50 (UACC-257) was > 100 µM (inactive), the GI50 (OVCAR-4) was > 100 µM (inactive) and the GI50 (CAKI-1) was > 100 µM (inactive). For the same compound, the GI50 (SR) was > 100 µM (inactive), the GI50 (HOP-18) was > 100 µM (inactive) and the GI50 (M14) was > 100 µM (inactive). For the same compound, the GI50 (DMS-273) was > 100 µM (inactive), the GI50 (KM-20L2) was > 100 µM (inactive) and the GI50 (SN12C) was > 100 µM (inactive). The GI50 (OVCAR-5) was > 100 µM (inactive), the GI50 (HCT-15) was greater than 100 µM and the GI50 (HT-29) was > 100 µM (inactive). The GI50 (HOP-92) was > 100 µM (inactive), the GI50 (HCT-116) was > 100 µM (inactive) and the GI50 (NCI-H23) was > 100 µM (inactive). The GI50 (SF-295) was > 100 µM (inactive), the GI50 (HCC 2998) was > 100 µM (inactive) and the GI50 (HL-60) was > 100 µM (inactive). For the same compound, the GI50 (SK-MEL-5) was > 100 µM (inactive), the GI50 (HOP-62) was > 100 µM (inactive) and the GI50 (RPMI-8226) was > 100 µM (inactive). The GI50 (CCRF-CEM) was > 100 µM (inactive), the GI50 (SNB-19) was > 100 µM (inactive) and the GI50 (KM12) was > 100 µM (inactive). The GI50 (NCI-H226) was > 100 µM (inactive), the GI50 (DMS-114) was > 100 µM (inactive) and the GI50 (Malme-3M) was > 100 µM (inactive). The GI50 (NCI-H522) was > 100 µM (inactive), the GI50 (UO-31) was > 100 µM (inactive) and the GI50 (K562) was > 100 µM (inactive). The GI50 (UACC-62) was > 100 µM (inactive), the GI50 (SK-OV-3) was > 100 µM (inactive) and the GI50 (SK-MEL-28) was > 100 µM (inactive). For the same compound, the GI50 (SK-MEL-2) was > 100 µM (inactive), the GI50 (A498) was > 100 µM (inactive) and the GI50 (A549) was > 100 µM (inactive). The GI50 (SNB-78) was > 100 µM (inactive), the GI50 (SNB-75) was > 100 µM (inactive) and the GI50 (OVCAR-8) was > 100 µM (inactive). The GI50 (SW-620) was > 100 µM (inactive), the GI50 (NCI-H460) was > 100 µM (inactive) and the GI50 (786-0) was > 100 µM (inactive). The GI50 (OVCAR-3) was > 100 µM (inactive), the GI50 (SF-539) was > 100 µM (inactive) and the GI50 (RXF 631) was > 100 µM (inactive). The GI50 (SF-268) was > 100 µM (inactive) and the GI50 (EKVX) was > 100 µM (inactive).
For `Cc1cc2nc3c(=O)[nH]c(=O)nc-3n(CC(O)C(O)C(O)CO)c2cc1N` (configuration not stated), the GI50 (COLO 205) was > 100 µM (inactive), the GI50 (LXFL 529) was > 100 µM (inactive) and the GI50 (MOLT-4) was > 100 µM (inactive). For the same compound, the GI50 (IGROV-1) was > 100 µM (inactive), the GI50 (ACHN) was > 100 µM (inactive) and the GI50 (M19-MEL) was > 100 µM (inactive). For the same compound, the GI50 (OVCAR-4) was > 100 µM (inactive), the GI50 (HOP-18) was > 100 µM (inactive) and the GI50 (M14) was > 100 µM (inactive). The GI50 (DMS-273) was > 100 µM (inactive), the GI50 (SN12C) was > 100 µM (inactive) and the GI50 (TK-10) was > 100 µM (inactive). The GI50 (HCT-15) was greater than 100 µM, the GI50 (HT-29) was > 100 µM (inactive) and the GI50 (HOP-92) was > 100 µM (inactive). The GI50 (HCT-116) was > 100 µM (inactive), the GI50 (NCI-H23) was > 100 µM (inactive) and the GI50 (SF-295) was > 100 µM (inactive). For the same compound, the GI50 (HCC 2998) was > 100 µM (inactive), the GI50 (HL-60) was > 100 µM (inactive) and the GI50 (SK-MEL-5) was > 100 µM (inactive). The GI50 (RPMI-8226) was > 100 µM (inactive), the GI50 (CCRF-CEM) was > 100 µM (inactive) and the GI50 (SNB-19) was > 100 µM (inactive). For the same compound, the GI50 (KM12) was > 100 µM (inactive), the GI50 (NCI-H226) was > 100 µM (inactive) and the GI50 (DMS-114) was > 100 µM (inactive). For the same compound, the GI50 (LOX IMVI) was > 100 µM (inactive), the GI50 (UO-31) was > 100 µM (inactive) and the GI50 (K562) was > 100 µM (inactive). The GI50 (UACC-62) was > 100 µM (inactive), the GI50 (SK-OV-3) was > 100 µM (inactive) and the GI50 (SK-MEL-28) was > 100 µM (inactive). For the same compound, the GI50 (SK-MEL-2) was > 100 µM (inactive), the GI50 (A498) was > 100 µM (inactive) and the GI50 (A549) was > 100 µM (inactive). The GI50 (SNB-78) was > 100 µM (inactive), the GI50 (SNB-75) was > 100 µM (inactive) and the GI50 (OVCAR-8) was > 100 µM (inactive). The GI50 (SW-620) was > 100 µM (inactive), the GI50 (NCI-H460) was > 100 µM (inactive) and the GI50 (786-0) was > 100 µM (inactive). For the same compound, the GI50 (OVCAR-3) was > 100 µM (inactive), the GI50 (SF-539) was > 100 µM (inactive) and the GI50 (RXF 631) was > 100 µM (inactive). For the same compound, the GI50 (EKVX) was > 100 µM (inactive).
